In general, pIC50 refers to −log10 of the IC50, conventionally taken in molar units. Broadly, the clearance is a measure of how efficiently the substance is removed, as volume per time. Read a high clearance as a high capacity for elimination. In general, half-life refers to how long it takes for the measured level to halve. Lower therefore signals rapid decline.

Each structure is given as a SMILES string. pIC50: −log10 of the molar value.

Data set [1] concerns the target T1, Cytochrome P450 1A2 (Homo sapiens, UniProt P05177).
T1 sequence (P05177 whole entry): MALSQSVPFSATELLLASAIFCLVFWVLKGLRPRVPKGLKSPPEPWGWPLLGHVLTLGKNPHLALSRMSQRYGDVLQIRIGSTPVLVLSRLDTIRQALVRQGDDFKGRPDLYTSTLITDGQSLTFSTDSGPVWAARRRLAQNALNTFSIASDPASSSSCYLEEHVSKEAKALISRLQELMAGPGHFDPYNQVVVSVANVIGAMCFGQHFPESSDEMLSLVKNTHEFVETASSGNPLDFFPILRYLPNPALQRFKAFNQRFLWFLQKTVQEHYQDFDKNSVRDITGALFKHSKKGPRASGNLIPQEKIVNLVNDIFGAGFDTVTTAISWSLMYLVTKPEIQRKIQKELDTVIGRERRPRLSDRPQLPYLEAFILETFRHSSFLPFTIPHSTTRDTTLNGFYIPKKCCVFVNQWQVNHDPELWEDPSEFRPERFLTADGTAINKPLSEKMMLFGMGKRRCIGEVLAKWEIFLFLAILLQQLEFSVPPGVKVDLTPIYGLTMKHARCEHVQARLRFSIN
Description: Inhibition of recombinant CYP1A2 (unknown origin). Format: ADME.

The nature of data set [2]: Clearance in rat at 2 mg/kg, iv. It counts as ADME, organism-based. Particulars: in vivo.
Data set [3] is described as follows: Half life in mouse at 2 mg/kg, iv. It counts as ADME, organism-based. Particulars: in vivo.
Data set [4] in a line: Half life in dog at 1 mg/kg, iv. It counts as ADME, organism-based, Canis lupus familiaris. Particulars: in vivo.

On to `O=C(N1CC[C@@]2(S(=O)(=O)c3ccc(F)cc3)c3ccc(C(F)(C(F)(F)F)C(F)(F)F)cc3CC[C@@H]12)C1(O)CCS(=O)(=O)CC1`, for which the pIC50 in data set [1] was less than 4.70. For the same molecule, the clearance in data set [2] came out at 3.7 mL/min/kg. Moreover, the half-life was 15 h in data set [3] and 87 h in data set [4].

The values are drawn from ChEMBL document CHEMBL4334512, “Rationally Designed, Conformationally Constrained Inverse Agonists of RORγt-Identification of a Potent, Selective Series with Biologic-Like in Vivo Efficacy” (J Med Chem, 2019).
